The test system of series [1] is PCAF Brd. The note with it: cited from earlier work.
The subject of series [2] is HIV‐1. As to conditions: read-out: HIV-1 EC50; cited from earlier work.
Series [3] relates to PCAF. Details: method as in earlier work. The note with it: read-out: PCAF AlphaLISA IC50; cited from earlier work.
Series [4] addresses T1, PCAF Brd (Homo sapiens, UniProt Q92831).
T1 construct: Human bromodomains were cloned, expressed and purified as previously described; made in house
T1 sequence (Q92831 723-827 limits assumed): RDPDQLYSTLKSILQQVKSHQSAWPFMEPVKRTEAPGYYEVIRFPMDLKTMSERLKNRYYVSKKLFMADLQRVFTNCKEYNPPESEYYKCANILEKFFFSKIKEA
Description: Differential scanning fluorimetry (DSF), PCAF Brd. The note with it: compound concentration 100 μM. Format: binding.

Series [5] deals with T1, PCAF Brd. Description: Isothermal titration calorimetry (ITC), PCAF Brd. It is filed as binding. The method, then:
(§1) Isothermal Titration Calorimetry (ITC)
(§2) Experiments were carried out on a Nano-ITC Standard Volume Instrument (TA Instruments). All experiments were carried out at 25 °C in 20 mM HEPES pH 7.5, 150 mM NaCl, 0.5 mM TCEP and 5% glycerol. Protein solutions were buffer exchanged by gel filtration. The titrations were conducted using an initial injection of 2 μL followed by 32 injections of 8 μL. Background dilution heat was substracted from each experiment. Thermodynamic parameters were calculated using ΔG = ΔH-T ΔS = -RTlnKB , where KD = 1/KB. ΔG, ΔH and ΔS are changes in free energy, enathalpy and entropy resepectively. Independent single site binding models were employed in data analysis.
(§3) Supplemental Figure 3. ITC trace of D-Moses and PCAF Brd […]

Series [6] has as its system peripheral blood mononuclear cells (PBMC). Description: Cytotoxicity in peripheral blood mononuclear cells (PBMC). As to conditions: 10 μM for 24 hours. It is filed as cell-based. The method, then:
(§4) obtained from 5 healthy donors. PBMC were cultured either with D-Moses or L-Moses at concentrations of 0.1, 1 and 10 μM or with a control (DMSO) for 24 hours. Viability of PBMC were then checked using LIVE/DEAD Fixable Aqua Dead Cell Stain Kit (ThermoFisher Scientific).
(§5) High Throughput Time Resolved Fluorescence Assay (HTRF)
(§6) HTRF assay was carried out using a Cisbio Epigenous kit B (62BDBPEH) using the standard assay protocol with GST-PCAFBRD.[3] Final assay concentrations: GST-PCAFBRD (20 nM), SA-XL665 (62.5 nM), α-GST donor (62.5 nM), compound 46 (500 nM). Ki was calculated using the Cheng-Prussof equation […]
(§7) Recombinant PfGCN5 (bromodomain only) was expressed in E. coli and purified using a previously described system. The protein crystallized with the compound L-45 at 293 K in 0.1M CaCl2, 30% PEG 8k, 0.2 M NH4SO4. The concentrations of the protein sample and the compound were 10 mg/ml […]
(§8) X-ray diffraction data for the crystal was collected at 100 K at the beamline 08ID-1 of the Canadian Macromolecular Crystallography Facility. The dataset was processed using the HKL-2000 suite, and the structure solved using Phaser, a component of the CCP4 suite with molecular replacement model 4QNS. […]

A short description of series [7]: Permeability in MDCK-MDR1 cells. Format: in vitro ADME. As to conditions: dog, direction not given.
Series [8] in a line: Metabolic stability in human liver microsomes. Format: in vitro ADME. As to conditions: human, liver microsomes; read-out: t1/2 human liver microsomes. As for the experimental part: (§9) In vitro Metabolism Studies
(§10) Metabolic stability studies were carried out exposing nominated compounds to samples of liver microsomes. Compounds were analysed by LC-MS for loss of compound at 0, 5, 15, 30 and 45 minute time points. The rate of metabolic degradation of compounds was used to calculate CLint, SE CLint, t1/2 (summarised in supplemental table 2.)
(§11) Supplemental Table 4. In vitro metabolic stability of compounds DL-45/DL-Moses and 39 Compound Metbolic Stability (Human) Metbolic Stability (Mouse) […]

Series [9] in a line: Metabolic stability in mouse liver microsomes. Format: in vitro ADME. The note with it: mouse, liver microsomes; read-out: t1/2 mouse liver microsomes. The method, then: as §9, §10, §11
For series [10], the target named is T2, GCN5L2 (Homo sapiens, UniProt Q92830).
T2 construct: made in house
T2 sequence (Q92830 728-832 limits assumed): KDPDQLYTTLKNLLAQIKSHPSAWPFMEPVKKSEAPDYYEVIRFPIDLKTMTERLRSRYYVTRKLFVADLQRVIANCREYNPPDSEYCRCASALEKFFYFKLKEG
Put plainly: Differential scanning fluorimetry (DSF), GCN5 (GCN5L2) Brd. The note with it: compound 10 μM; 10 µM. Format: binding. The method, then:
Protein Expression and Purification
Human bromodomains were cloned, expressed and purified as previously described.[1]
Differential Scanning Fluorimetry (DSF)
Thermal melting points were recorded using an Mx3005p Real Time PCR Machine (Stratagene).
Subject proteins were buffered in 10 mM HEPES at pH 7.5, 500 mM NaCl and assayed in a 96-well […]
plate at a final concentration of 2 μM in 20 μL volume. Compounds were then added to a final […]
concentration of 10 μM. SPYRO Orange (Molecular Probes) was used as a fluorescent probe at a […]
dilution of 1:1000. Excitation and emission filters for the SPYRO-Orange dye were set to 465 nm and […]
590 nm, respectively. The temperature was raised with a step of 3 °C/min from 25 °C to 96 °C and […]
fluorescence readings were taken at each interval. Data was analysed as previously described.[2]
Bromodomain affinity selectivity panel of (S)-11
Supplemental Figure 1. DSF Selectivity panel of (S)-11 against 48 human Bromodomains. […]
┼Mean ΔTm ± SEM (number of measurements= 2). Compound concentration: 10 μM […]
(1 picture or pasted object on this page, not shown here)

The target of series [11] is T3, GST-PCAFBRD (Homo sapiens, UniProt Q92831).
T3 construct: Final assay concentrations: GST-PCAFBRD (20 nM)
T3 sequence (Q92831 723-827 limits assumed): T1 sequence (Q92831 723-827 limits assumed)
Description: HTRF assay, displacement of biotinylated compound 46 from GST-PCAF Brd. Format: binding. The method, then: as §4, §5, §6, §7, §8

Series [12] addresses T4, HGCN5 Brd (Homo sapiens, UniProt Q92830).
T4 construct: made in house
T4 sequence (Q92830 728-832 limits assumed): T2 sequence (Q92830 728-832 limits assumed)
Description: Isothermal titration calorimetry (ITC), human GCN5 Brd. Format: binding. As for the experimental part: as §1, §2
Supplemental Figure 2. ITC trace of L-Moses and PCAF Brd
as §3

In series [13] the target is T5, PCAF‐Brd histone H3.3 interaction (Homo sapiens, UniProt Q92831).
T5 construct: NanoLuciferase fusion of the isolated bromodomain of PCAF; expressed in transfected cells; host or cells: HEK293
T5 sequence (Q92831 723-827 limits assumed): T1 sequence (Q92831 723-827 limits assumed)
Put plainly: nanoBRET target engagement assay, PCAF-Brd / histone H3.3 in HEK293 cells. It is filed as cell-based. The note with it: live HEK293 cells; compounds 5 μM, 18 h. The method, then:
page 48: NanoLuciferase Bioluminescent Resonance Energy Transfer (NanoBRET) Assay Methods HEK293 cell (8 x 105) were plated in each well of a 6-well plate and co-transfected with Histone H3.3- HaloTag (NM_002107) and a NanoLuciferase fusion of the isolated bromodomain of PCAF. Twenty hours post-transfection, cells were collected, washed with PBS, and exchanged into media containing phenol red-free DMEM and 4% FBS in the absence (control sample) or the presence (experimental sample) of 100 nM NanoBRET 618 fluorescent ligand (Promega). Cell density was adjusted to 2 x 10^5 cells/ml and then re-plated in a 96-well assay white plate (Corning Costar #3917). […] Readings were performed within 5 minutes using a Glo-MAX Discover instrument (Promega) equipped with 450/8 nm bandpass and 600 nm longpass filters with a 0.3 sec reading setting. A corrected BRET ratio was calculated and is defined as the ratio of the emission at 600 nm/450 nm for experimental samples (i.e. those treated with NanoBRET fluorescent ligand) subtracted by and the emission at 600 nm/450 nm for control samples (not treated with NanoBRET fluorescent ligand). BRET ratios are expressed as milliBRET units (mBU), where 1 mBU corresponds to the corrected BRET ratio multiplied by 1000. […] Compounds were analysed by LC-MS for loss of compound at 0, 5, 15, 30 and 45 minute time points. […]

Like-named read-outs stand apart in the source and are kept apart here. Marks after values point to notes of the source that are not given here.

Regarding `NCCCNCc1ccc(NCCCN)[n+]([O-])c1` [Compound 2], in [1], the IC50 was 930 nM. In addition, the EC50 in series [2] was 11500 nM.
As to `CC(C)C[C@H]1C[C@@H](Nc2cnn(C)c(=O)c2Cl)CN(C)C1` [Compound 3], in series [3], the IC50 is 13 nM.
For `Cc1nnc2c3ccccc3c(NCCN(C)C)nn12` [Compound 7], the “ΔT m [°C] PCAF (DSF)” value in [4] was 8.5^[b] °C. Further, the Kd in series [5] (Supplemental Table 3, compound concentration 30 μM, protein concentration 280-320 μM, read-out: PCAF KD (μM) (ITC)) turned out to be 7.98 µM; in series [5] (Table 1, read-out: K D [μM] (ITC) PCAF Brd), 8 ± 0.65 µM.
As to `Cc1nnc2c3ccccc3c(N[C@@H](C)[C@H](c3ccccc3)N(C)C)nn12` [L‐45], the “cytotoxicity in PBMC” value in series [6] is reported as “no observable cytotoxicity”. The Papp came out at 59 ×10⁻⁶ cm/s in series [7] (MDCK-MDR1, first of 59/70, read-out: MDCK-MDR1 permeability, first value of the pair) and 70 ×10⁻⁶ cm/s in series [7] (MDCK-MDR1, second of 59/70, read-out: MDCK-MDR1 permeability, second value of the pair). The half-life came to 40 min in [8] and 38 min in [9]. In addition, the Kd in series [5] (Table 2, read-out: K D (nM) (ITC) PCAF Brd) came to 0.126 ± 0.015 µM; in series [12] it was 550 nM. In addition, the “GCN5L2 ΔTm (°C) (DSF)” value in series [10] is “+3.6 °C”. This molecule yielded a Ki in [11] of 47 nM. Further, the “displacement of PCAF‐Brd from H3.3 in nanoBRET assay” value in series [13] is reported as “single digit μM concentration”.
